Results published in paper PMC11087509, “Multimodal binding and inhibition of bacterial ribosomes by the antimicrobial peptides Api137 and Api88” (Nature Communications, 2024).
“Also recorded” adds a separate entry of the source. Where a SMILES comes first, the peptide text is derived from it. The star is where a group is joined. Orn(α-tetramethylguanidino) = CN(C)C(=N[C@@H](CCCN)C(=O)*)N(C)C

Columns and labels:
50S subunit = target: T1, 50S subunit (Escherichia coli, UniProt P0A7M6+P0ADZ0+P60723+P61175); experiment: Fluorescence polarization binding, 50S subunit; parameters: species or system E. coli
T1 construct: Ribosomes were isolated from the E. coli strain MRE600; made in house; native subunits isolated in house
Experimental: Several hundred grams of log-phase cells were commercially produced and purchased. Cells were washed in buffer A (20 mmol/L HEPES (pH 7.6), 6 mmol/L MgAc2, 30 mmol/L AcOK, 4 mmol/L ß-mercaptoethanol) and lysed in an M-110L microfluidizer (Microfluidics) at 17,000 psi and 4 °C. Cell debris was removed by low-speed centrifugation (15,000× g, 10 min, 4 °C) to obtain S30 lysate. Crude ribosomes, mostly containing 70S ribosomes, were pelleted by ultracentrifugation (40,000× g, 17 h, 4 °C) and resuspended in buffer A. The 70S ribosomes were separated from 30S and 50S subunits by zonal ultracentrifugation (Beckman Ti-15; 6–40% sucrose gradient in buffer A, 44,000× g, 16 h, 4 °C). The 70S-containing fractions were collected, and the ribosomes were sedimented by ultracentrifugation (40,000× g, 17 h, 4 °C). Since these 70S ribosomes still contained tRNAs and mRNA, they were resuspended in buffer B (20 mmol/L HEPES (pH 7.6), 1 mmol/L MgAc2, 0.2 mol/L NH4Ac, 4 mmol/L ß-mercaptoethanol), which allows for dissociation into 30S and 50S subunits, and subjected to a second zonal centrifugation (Beckman Ti-15, 44,000× g, 16 h, 4 °C), but this time in a 6–40% sucrose gradient prepared in buffer B. Fractions containing 30S and 50S subunits were collected, sedimented by ultracentrifugation (40,000× g, 17 h, 4 °C), resuspended in buffer A, aliquoted, shock-frozen in liquid nitrogen, and stored at −80 °C.
Dissociation constants (Kd) were determined using purified 70S ribosome, 50S or 30S subunit and cf-labeled peptides in ribosome preparation buffer. Briefly, black 384-well plates (flat bottom, 781209, Greiner Bio-One GmbH) were blocked with casein (0.5%, w/v) in PBS containing 0.05% (v/v) Tween 20 at 4 °C overnight and washed three times with phosphate buffer. A 2-fold dilution series (22 steps) of pure 70S ribosome, 50S or 30S subunit (10 μL per well) in ribosome preparation buffer was prepared in a black 384-well plate. The cf-labeled peptide was dissolved in ribosome preparation buffer (10 μL, 40 nmol/L), added to each well, centrifuged (500 x g, 2 min), and incubated at 28 ± 1 °C for 90 min. Fluorescence polarization was measured on a […]^TM microplate reader (Beckman Coulter, Krefeld, Germany) in the top reading position (λexc = 485 nm, λem = 535 nm). Data were fitted to a nonlinear dose-response logistic transition equation [y = y0 + a/(1 + (x/x0)b)] using the Levenberg-Marquardt algorithm, with Kd represented by the x0 coefficients (GraphPad Prism for Windows v. 10.1.2, San Diego, CA, USA).

purified 70S ribosome [1] = target: T2, purified 70S ribosome (Escherichia coli, UniProt P0A7M6+P0ADZ0+P60723+P61175); experiment: Fluorescence polarization binding, purified 70S ribosome; parameters: species or system E. coli
T2 construct: obtain highly pure E. coli 70S ribosomes; made in house; host or cells: E. coli BW25113 (native ribosomes isolated, not recombinant)
Experimental: (§1) E. coli BW25113 were grown in LB medium and harvested by centrifugation (5000× g, 15 min, 4 °C) at an OD600 of 3-4. Cell pellets were washed in ribosome preparation buffer (20 mmol/L HEPES-KOH, 6 mmol/L MgCl2, 30 mmol/L NH4Cl, pH 7.6, 4 °C), centrifuged (4100× g, 30 min, 4 °C), and suspended in ribosome preparation buffer ([…]) containing freshly added ß-mercaptoethanol (4 mmol/L). Lysozyme was added to the resuspended cells and incubated for 30 min on ice. Cells were disrupted in six cycles using a FastPrep-24^TM 5 G instrument (MP Biomedicals, Eschwege, Germany) with the BigPrep 50 mL setting (40 s, 4.0 m/s) and one-minute incubation on ice between cycles. […]
(§2) Ribosomes were purified by anion exchange chromatography using an Äkta Pure System (GE Healthcare, Freiburg, Germany) and a CIM®QA column (8 mL, 2 µm channels; Sartorius Stedim Biotech GmbH, Göttingen, Germany). […] The ribosome concentration was estimated by recording the absorbance at 260 nm (considering that 15 AU corresponds to a ribosome concentration of 1 g/L). […]
Dissociation constants (Kd) were determined using purified 70S ribosome, 50S or 30S subunit and cf-labeled peptides in ribosome preparation buffer. […] Fluorescence polarization was measured on a […]^TM microplate reader (Beckman Coulter, Krefeld, Germany) in the top reading position (λexc = 485 nm, λem = 535 nm). […]

purified 70S ribosome [2] = target: T2, purified 70S ribosome; experiment: Fluorescence polarization competition with cf-Api88 on purified 70S ribosome; format: binding, E. coli; conditions: competition with cf-Api88, pure 70S ribosome; 28 °C
Experimental: as §1, §2
Inhibition constants (Ki) were determined for the pure 70S ribosome using cf-labeled and unlabeled peptides in the ribosome preparation buffer. […] Fluorescence polarization was measured on a […]^TM microplate reader in the top reading position (λexc = 485 nm, λem = 535 nm). […] The Ki values were calculated as described by Mathias and Jung[39].

DnaK = conditions: read-out: Kd (DnaK); peer review response; cited from earlier work
Text: We now introduce trigger factor in line 446 as “…molecular chaperone…” In addition, we hypothesize that Api88 binds to the ribosome within the contact area of TF, which interacts with uL23 and uL29, two proteins we report here as cross-linked to Api88.

recombinant TF = conditions: fluorescence polarization; cited from earlier work
Text: Binding sites two and three are close to uL23 and uL29, which is also supported by Api88(Y7B) cross-links. These ribosomal proteins are located adjacent to the PET exit and are binding hubs for the molecular chaperone trigger factor (TF)[34] and the signal recognition particle (SRP), a universally conserved and essential cellular machinery that directs proteins destined for membrane integration to the plasma membrane[35],[36]. This co-translational targeting is initiated by a hydrophobic signal sequence in the nascent protein chain recognized by SRP as it exits the PET. It is appealing to hypo ...

Compound: CC[C@H](C)[C@H](NC(=O)[C@H](Cc1ccc(O)cc1)NC(=O)[C@@H](NC(=O)[C@@H]1CCCN1C(=O)[C@H](CCCNC(=N)N)NC(=O)[C@H](CC(N)=O)NC(=O)[C@H](CC(N)=O)NC(=O)[C@H](CCCN)N=C(N(C)C)N(C)C)C(C)C)C(=O)N1CCC[C@H]1C(=O)N[C@@H](CCCNC(=N)N)C(=O)N1CCC[C@H]1C(=O)N[C@@H](CCCNC(=N)N)C(=O)N1CCC[C@H]1C(=O)N1CCC[C@H]1C(=O)N[C@@H](Cc1c[nH]cn1)C(=O)N1CCC[C@H]1C(=O)N[C@@H](CCCNC(=N)N)C(=O)N[C@@H](CC(C)C)C(N)=O [Api88] ({Orn(α-tetramethylguanidino)}-NNRPVYIPRPRPPHPRL-NH2)
- Kd (50S subunit; apparent Kd, cf-labeled PrAMP (10 μL, 40 nmol/L), ribosome preparation buffer pH 7.6, 28 °C, 90 min, mean of triplicates): 0.58 ± 0.05 µM
- Kd for 50S subunit lower than for 70S ribosome (50S subunit; ratio 70S / 50S, cf-labeled): threefold
- Kd (purified 70S ribosome [1]; apparent Kd, cf-labeled PrAMP (10 μL, 40 nmol/L), ribosome preparation buffer (20 mmol/L HEPES-KOH, 6 mmol/L MgCl2, 30 mmol/L NH4Cl, pH 7.6), 28 °C, 90 min, mean of triplicates, read-out: Kd 70S ribosome pure): 1.82 ± 0.08 µM
- higher affinity of Api88 than Api137 (purified 70S ribosome [1]; purified 70S ribosomes and 50S subunits): 2-3 fold

Compound: CC[C@H]1OC(=O)[C@H](C)[C@@H](O[C@H]2C[C@@](C)(OC)[C@@H](O)[C@H](C)O2)[C@H](C)[C@@H](O[C@@H]2O[C@H](C)C[C@H](N(C)C)[C@H]2O)[C@](C)(O)C[C@@H](C)C(=O)[C@H](C)[C@@H](O)[C@]1(C)O [erythromycin]
- displacement of cf-Api88 / decrease in fluorescence polarization (purified 70S ribosome [2]): significantly competing with the binding of cf-Api88; also recorded: reduced the fluorescence polarization to a much lesser extent

Compound: GNNRPVYIPQPRPPHPRL [apidaecin 1b, reference compound]
- Kd (DnaK): ~5 µM
- Kd (recombinant TF): > 100 µM
